Consider seven compounds from PMC10548452 (Journal of medicinal chemistry, 2021).

Like-named read-outs stand apart in the source and are kept apart here.

For orientation: IC50 means the concentration needed to halve the response being measured. As usually defined, the EC50 is the midpoint of the concentration-response curve. By viability is commonly meant a read-out of living cells in per cent, often relative to untreated cells. A high value points to better survival. As usually defined, the Kd is the constant that tells how readily two partners part at equilibrium.

Data set [1] has as its target rhesus macaque CCR5 expressed in Chem-1 cells (Macaca mulatta, UniProt P61813). In words: CCR5 competitive radioligand binding assay.
Another data set concerns the target CCR5 (HOS-CCR5 cells) (Homo sapiens, UniProt P51681). The data set can be described thus: Calcium mobilization assay in HOS-CCR5 cells. The data set is classed as cell-based. The following applies: for CCR5 activation (agonism) in Ca2+ mobilization assay: within the range of concentrations tested.
Data set [2] concerns HIV-1BaL Env-pseudotyped Luc-expressing virus. In kind it is cell-based. The following applies: PHA-stimulated PBMCs; opioid 10 nM.
Another data set concerns GHOST CCR5 cells. In words: Cytotoxicity. The following applies: GHOST CCR5 cells; XTT; triplicate. In general terms: Tetrazolium assays rely on reduction of a dye to a coloured formazan, in cell work by metabolically active cells.
For a further data set, the system named is HIV. As to conditions: primary human astrocytes, cited from earlier work.
Data set [3] relates to HIV-1BaL. In words: Anti-HIV-1BaL activity. As to conditions: GHOST CCR5 cells.
In data set [4] the target is mouse mu opioid receptor (mMOR-CHO) (Mus musculus, UniProt P42866). In words: Calcium mobilization assay in mMOR-CHO cells. The data set is classed as cell-based. The following applies: agonist mode, varying concentrations. For orientation: A change in cytosolic calcium serves as a functional read-out for many receptors and channels.
Sequence of mouse mu opioid receptor (mMOR-CHO) (P42866 whole entry): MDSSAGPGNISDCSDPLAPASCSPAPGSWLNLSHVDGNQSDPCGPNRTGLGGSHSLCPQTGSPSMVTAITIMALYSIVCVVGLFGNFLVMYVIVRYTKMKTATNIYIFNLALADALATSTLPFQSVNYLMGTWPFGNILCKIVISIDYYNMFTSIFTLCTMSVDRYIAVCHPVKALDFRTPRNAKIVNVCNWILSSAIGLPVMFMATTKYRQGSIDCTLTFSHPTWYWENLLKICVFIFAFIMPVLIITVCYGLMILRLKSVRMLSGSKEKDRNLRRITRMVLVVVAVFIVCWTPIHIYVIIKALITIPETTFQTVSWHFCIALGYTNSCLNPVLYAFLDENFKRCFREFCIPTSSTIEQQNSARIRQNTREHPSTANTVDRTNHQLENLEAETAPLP
The next data set in a line: Cytotoxicity. As to conditions: human.
Data set [5] deals with HIV-1BaL. The data set can be described thus: HIV-1BaL infection assay in OPRM1- or control plasmid-transfected TZM-bl cells. In kind it is cell-based. As to conditions: Human immunodeficiency virus 1, TZM-bl, read-out: Inhibition of HIV-1BaL infection EC50, TZM-bl cells containing only control plasmid.
Data set [6] has as its system HIV-1BaL Env-pseudotyped Luc-expressing virus (HIV-1-Luc). In words: HIV-1-Luc infection assay in nonstimulated PBMCs. In kind it is cell-based. As to conditions: 1000 nM.
Data set [7] deals with mouse MOR expressed in CHO cell lines (mMOR-CHO) (Mus musculus, UniProt P42866). The data set can be described thus: MOR competitive radioligand binding assay. As to conditions: ratio of Ki values vs VZMC001.
Sequence of mouse MOR expressed in CHO cell lines (mMOR-CHO) (P42866 whole entry): as above
A further data set addresses CCR5 (Macaca mulatta) (UniProt P61813). In words: radioligand binding. The following applies: cited from earlier work.

Sequence of CCR5 (HOS-CCR5 cells) (P51681 whole entry): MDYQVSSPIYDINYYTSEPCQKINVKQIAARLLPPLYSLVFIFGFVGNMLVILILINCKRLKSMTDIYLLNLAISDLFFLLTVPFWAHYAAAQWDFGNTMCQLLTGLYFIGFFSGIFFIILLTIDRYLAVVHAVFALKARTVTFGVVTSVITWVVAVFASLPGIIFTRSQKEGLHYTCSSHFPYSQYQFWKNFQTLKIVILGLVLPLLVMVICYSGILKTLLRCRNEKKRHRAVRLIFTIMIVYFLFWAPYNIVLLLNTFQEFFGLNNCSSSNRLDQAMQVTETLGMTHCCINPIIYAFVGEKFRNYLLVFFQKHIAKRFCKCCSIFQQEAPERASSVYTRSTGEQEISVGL
Sequence of MIP-1α (P10147 27-92): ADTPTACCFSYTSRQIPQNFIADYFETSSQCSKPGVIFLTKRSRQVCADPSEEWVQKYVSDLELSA

Take `CC(C)c1nnc(CCNC(=O)COCC(=O)NCCCCCNC(=O)COCC(=O)N[C@@H]2CC[C@@]3(O)[C@H]4Cc5ccc(O)c6c5[C@@]3(CCN4CC3CC3)[C@H]2O6)n1C1C[C@H]2CC[C@@H](C1)N2CC[C@H](NC(=O)C1CCC(F)(F)CC1)c1ccccc1` (some centres unmarked) [VZMC019]: the IC50 in data set [1] was over 10 µM.

Turning to “CCL5: C─C motif chemokine ligand 5, CCR5 agonist control [reference compound]”, the EC50 with CCR5 (HOS-CCR5 cells) (read-out: Ca2+ mobilization agonism EC50, agonist mode, HOS-CCR5 cells with Gqi5) came out at 155 ± 6.58 nM.

For the compound `C[C@@H](NC(=O)[C@@H](N)Cc1ccc(O)cc1)C(=O)NCC(=O)N(C)[C@@H](Cc1ccccc1)C(=O)NCCO` [DAMGO, [D-Ala^2-MePhe^4-Gly(ol)^5]enkephalin], the “effect on HIV expression” value in [2] was “remarkable increases in HIV expression”.

For the compound `Cc1nnc(C(C)C)n1C1C[C@H]2CC[C@@H](C1)N2CC[C@H](NC(=O)C1CCC(F)(F)CC1)c1ccc(NC(=O)COCC(=O)NCCCCCCCNC(=O)COCC(=O)N[C@@H]2CC[C@@]3(O)[C@H]4Cc5ccc(O)c6c5[C@@]3(CCN4CC3CC3)[C@H]2O6)cc1` (some centres unmarked) [VZMC001, reference compound], in the data set with GHOST CCR5 cells, the “Cytotoxicity TC50” value was over 100 µM. In addition, the “fold higher inhibition of HIV entry than maraviroc” value is on record as 7 fold in the data set on HIV (with morphine) and 3.3 fold in the data set with HIV (without morphine). In addition, the RT activity with HIV-1BaL [3] (concentrations up to 100 μM, 0 μM defined as 100%) is reported as 107.6–226.1%.

Regarding `CC(C)c1nnc(CCNC(=O)COCC(=O)NCCCCCCCNC(=O)COCC(=O)N[C@@H]2CC[C@@]3(O)[C@H]4Cc5ccc(O)c6c5[C@@]3(CCN4CC3CC3)[C@H]2O6)n1C1C[C@H]2CC[C@@H](C1)N2CC[C@H](NC(=O)C1CCC(F)(F)CC1)c1ccccc1` (some centres unmarked) [VZMC013], in data set [4], the “agonism in Ca2+ mobilization assay” value is “No agonism was observed”. The compound also came in with a viability at 6 days, 100 µM in the data set “Cytotoxicity” of about 100%. For the same compound, the “Cytotoxicity TC50” value in the data set with GHOST CCR5 cells was over 100 µM. Also, the EC50 in the data set on HIV-1BaL [5] was 610 nM. In addition, the “Inhibition of HIV-1-Luc infectivity” value in [6] is on record as “nearly complete blockade”. Besides, on CCR5 (HOS-CCR5 cells) (agonist mode), the “CCR5 activation (agonism) in Ca2+ mobilization assay” value is “none of these compounds appeared to activate CCR5”. For the same compound, the “fold more potent than VZMC001 in inhibiting CCL5-stimulated Ca2+ mobilization” value on CCR5 (HOS-CCR5 cells) (ratio of IC50 values vs VZMC001) is given as 2.2 fold. Besides, the “fold higher MOR binding affinity than VZMC001” value in [7] amounted to 8.6 fold. Besides, the “fold greater CCR5 binding affinity than monovalent VZMC014” value in [1] (ratio of Ki values vs VZMC014) is 12 fold. For the same compound, the “TI (therapeutic index, TC50/EC50)” value in the data set on HIV-1BaL [3] is recorded as over 1075.

As for MIP-1α (from UniProt P10147), the Kd with CCR5 (Macaca mulatta) was 0.31 nM.

For `CNC(=O)COCC(=O)NCCCCCCCNC(=O)COCC(=O)NCCc1nnc(C(C)C)n1[C@@H]1C[C@H]2CC[C@@H](C1)N2CC[C@H](NC(=O)C1CCC(F)(F)CC1)c1ccccc1` [VZMC014], the IC50 on CCR5 (HOS-CCR5 cells) was 116 nM. For the same compound, the “CCR5 activation (agonism) in Ca2+ mobilization assay” value at CCR5 (HOS-CCR5 cells) (agonist mode) is reported as “none of these compounds appeared to activate CCR5”.
